In PMC7002685, “Inhibition of vascular calcification by inositol phosphates derivatized with ethylene glycol oligomers” (Nature Communications, 2020):
Where “and” joins values, the source holds several entries; their conditions need not be identical. Equal entries are not always repeated. Where two headings read alike, the source gives them in different places.

Legend:
CPPs = assay: TEM and selected area electron diffraction of CPPs; parameters: species or system human
Description: To confirm the screening assay data, the hydrodynamic diameter of the CPPs was measured by dynamic light scattering (DLS). […] The CPP2 size deduced by DLS is slightly larger than the size derived from transmission electron microscopy (TEM) (Supplementary Figs. 4c and 7a), the latter being in line with previous work[52].
CPPs were prepared (vide supra) and TEM was performed similar to previous reports. […] […] Herein, cell culture grade 50 mM HEPES (1 M HEPES, 5630056, Thermo Fischer Scientific) was used for washing steps, to avoid high solvent and particle background in TEM. In brief, CPPs at 0.5 mg calcium/mL were drop-casted onto a copper grid, 300 mesh, covered with a continuous 8-nm-thick carbon film. The TEM data were collected with an FEI Tecnai F30 FEG TEM operated at 300 kV acceleration voltage and equipped with a Gatan 749 MultiScan CCD camera (Thermo Fischer Scientific). The bright-field images were collected at ×39,000 magnification using a 10-μm objective aperture. To assess the crystallinity of the sample selected area diffraction patterns were collected in parallel at a camera length of 300 mm. The radii of the rings in the diffraction pattern were measured (1/nm) and the associated interplanar d-spacings (nm) were calculated.

CPP2 = assay: Competitive 18F-NaF binding assay on CPPs; parameters: species or system human; settings: for IC50: CPP2 20 µg Ca/mL, 18F-NaF 1 nM, 1 h RT, read-out: IC50 (reduction of 18F binding to CPP)
Description: A ^18F-NaF-based competitive binding assay was developed to indirectly assess the inhibitor affinity (IC50) to CPPs. The uptake mechanism of ^18F-NaF, a marker of micro-calcification activity by chemisorption onto hydroxyapatite crystals, is contingent on the rapid exchange of hydroxyl (OH^−) groups present on the hydroxyapatite surface (Ca5(PO4)3(OH)) by ^18F^− to form fluoroapatite (Ca5(PO4)3^18F)[34],[54].
Triplicate aliquots of CPP2s (20 µg Ca/mL) in 100 μL assay buffer (100 mM HBS, pH 7.4 (RT)) were incubated for 1 h at RT in the presence of increasing concentrations of compounds in 50 μL Milli-Q water and ^18F-NaF (1 nM) in 50 μL assay buffer, resulting in a total incubation volume of 200 μL (^18F-NaF was prepared using a FASTlab synthesizer (GE Healthcare, Little Chalfont, UK) and commercially available ^18F-NaF cassettes (GE Healthcare)). Maximum radiotracer binding was determined by incubating CPP2s with ^18F-NaF (1 nM) only. The reaction was terminated by rapid filtration through a SOLAμ™ SPE plate (HRP 2 mg/mL 96-well plate, 22 μm; Thermo Fisher Scientific). SPE individual column matrices were washed twice rapidly in assay buffer and radioactivity on the filters determined by an automatic gamma counter (Wizard2 Gamma Counter, Perkin Elmer, Waltham, MA, USA). […] IC50 is the concentration of […] that gives a response half way between the bottom and top parts of the curve. ^18F-NaF micro-PET/computed tomography (micro-PET/CT) was employed for ex vivo analysis of (OEG2)2-IP4’s engagement to target calcified human tissue explants, as described previously. […] Following incubations, samples were washed twice in 0.1 M PBS (1 min per wash) and mounted on a Petri dish for micro-PET/CT imaging (nanoPET/CT, Mediso, Budapest, Hungary). In total, seven samples from the femoral arteries of three patients with ischemic peripheral disease and three samples from native aortic valves of three patients undergoing valve replacement surgery were used. All samples were collected at the time of surgery and stored in 4% paraformaldehyde at RT until further use. All patients gave their written, informed consent. All procedures had local ethical approval (06/S0703/110, 12/WS/0227, 09/S0703/118, and 12/NW/0036). All studies were approved by East and West Scotland Research Ethics Committees, and all experiments were conducted according to the principles expressed in the Declaration of Helsinki.

[1] = Serum calcification propensity assay after 4.5 h incubation in enzymatically active human serum; settings: Fig. 2e; for ΔT50 after 4.5 h vs 0 h incubation in enzymatically active human serum: compound at c350 concentration, 37 °C, individual donors
[2] = VSMC viability (MTS) in CPP2-supplemented medium; format: cell-based, human; settings: human, read-out: VSMC viability (MTS), % of medium control; for viability at 48 h, 3 µM: 3 µM with CPP2; for viability at 48 h, 10 µM: 10 µM with CPP2; for viability at 48 h, 30 µM: 30 µM with CPP2
Description: Macrophage accumulation and inflammation coincide with the initial phase of calcification. To this end, VSMCs and THP-1-derived macrophages were exposed to CPP2-supplemented medium. CPP2 prepared from human serum as described previously[61] (Supplementary Figs. 6 and 7), induced a pronounced VSMC monolayer calcification after 48 h, which was decreased by (OEG2)2-IP4 in a dose-dependent fashion, and the effect became significant at 10 µM (Fig. 3e). […] Both H2O2 (proxy for oxidative stress) and tumor necrosis factor-alpha (TNF-α) (proxy for inflammatory response) levels were assayed in the VSMC culture supernatants subsequent to CPP2 treatment with and without compounds[30]. However, no increase in H2O2 nor TNF-α compared to control could be detected in either assay. For the CPP-induced VSMC calcification assay (Fig. 3e) a roughly 10-fold higher concentration of (OEG2)2-IP4 was necessary to achieve similar activity as in the CaP-induced VSMC calcification assay (Fig. 3b). […] In the CaP assay, low inhibitor concentration may be sufficient to inhibit crystal nucleation, whereas for the CPP assay higher inhibitor concentrations may be needed to achieve sufficient particle stabilization by chemisorption of inhibitor onto CPPs. Similar results have been reported for hydrogen sulfide in the context of VC[62],[64]. […] An increase in the TNFα levels in the cell culture supernatants was not observed for (OEG2)2-IP4 with (Fig. 3h) and without (Supplementary Fig. 10) combined CPP2 treatment.
Cell viability was assessed using the MTS assay (CellTiter 96® Aqueous One Solution Cell Proliferation Assay, G3580; Promega, Madison, WI, USA) according to the manufacturer’s instructions. Assays using combined treatment of CPPs or CaP and test compounds were performed in 24-well plates using 20,000 cells per well and assays using test compounds only were performed in a 96-well plate format with a seeding density of 10,000 (VSMC) or 50,000 (THP-1) cells per well, respectively. For controls, cells were treated with respective complete medium only and results were calculated as % of control.

COCCOCCO[C@@H]1[C@@H](OP(=O)(O)O)[C@H](OCCOCCOC)[C@@H](OP(=O)(O)O)[C@@H](OP(=O)(O)O)[C@H]1OP(=O)(O)O [(OEG2)2-IP4, 4,6-Di-O-(methoxy-diethyleneglycol)-myo-inositol-1,2,3,5-tetrakis(phosphate)]
CPP morphology (TEM) (CPPs; 10 µM): matched those of CPP2s | CPP crystallinity (selected area electron diffraction) (CPPs; 100 µM, 14 h, 37 °C): largely amorphous | CPP morphology (TEM) (CPPs; 100 µM, 14 h, 37 °C): spherical-shaped CPP1s | IC50 (CPP2): 0.81 µM | IC90 (CPP2; as assessed in Fig. 2c, read-out: IC90 (concentration inhibiting 90% 18F-NaF binding)): 8.6 µM | IC90 (CPP2; as used for tissue explants, read-out: IC90): 8.55 µM | 18F-NaF percentage binding to CPP2 (CPP2; concentration 0.75 (unit not given), listed as INS-3001): 105.464% and 94.9958% and 112.003% | 18F-NaF percentage binding to CPP2 (CPP2; concentration 2.5 (unit not given), listed as INS-3001): 107.219% and 104.697% and 115.819% | 18F-NaF percentage binding to CPP2 (CPP2; concentration 7.5 (unit not given), listed as INS-3001): 94.1661% and 101.068% and 121.959% | 18F-NaF percentage binding to CPP2 (CPP2; concentration 25 (unit not given), listed as INS-3001): 108.675% and 100.128% and 123.491% | 18F-NaF percentage binding to CPP2 (CPP2; concentration 75 (unit not given), listed as INS-3001): 113.007% and 98.9202% and 111.871% | 18F-NaF percentage binding to CPP2 (CPP2; concentration 250 (unit not given), listed as INS-3001): 85.5215% and 95.9196% and 111.875% | 18F-NaF percentage binding to CPP2 (CPP2; concentration 750 (unit not given), listed as INS-3001): 70.0481% and 89.1189% and 102.542% | 18F-NaF percentage binding to CPP2 (CPP2; concentration 1750 (unit not given), listed as INS-3001): 31.7703% and 41.2562% and 38.4419% | 18F-NaF percentage binding to CPP2 (CPP2; concentration 7500 (unit not given), listed as INS-3001): 12.1628% and 10.8683% and 17.508% | 18F-NaF percentage binding to CPP2 (CPP2; concentration 25000 (unit not given), listed as INS-3001): 16.4031% and 18.0245% and 30.0027% | 18F-NaF percentage binding to CPP2 (CPP2; concentration 75000 (unit not given), listed as INS-3001): 21.5957% and 22.2508% and 37.2218% | 18F-NaF percentage binding to CPP2 (CPP2; concentration 250000 (unit not given), listed as INS-3001): 17.9597% and 19.9827% and 35.4457% | 18F-NaF percentage binding to CPP2 (CPP2; concentration 750000 (unit not given), replicates Fig. 2c, listed as INS-3001): 28.6563% and 25.7698% and 36.7738% | ΔT50 after 4.5 h vs 0 h incubation in enzymatically active human serum [1]: -10 min and 0 min and 51 min and 10 min | viability at 48 h, 3 µM [2]: 102% | viability at 48 h, 10 µM [2]: 104% | viability at 48 h, 30 µM [2]: 101% | viability at 48 h, 100 µM ([2]; 100 µM with CPP2): 93.7%

O=P(O)(O)O[C@H]1[C@H](OP(=O)(O)O)[C@@H](OP(=O)(O)O)[C@H](OP(=O)(O)O)[C@@H](OP(=O)(O)O)[C@H]1OP(=O)(O)O [IP6, myo-Inositol hexakisphosphate]
CPP morphology (TEM) (CPPs; 100 µM, 14 h, 37 °C): spindle-shaped CPP2s | IC50 (CPP2): 3.96 µM | 18F-NaF percentage binding to CPP2 (CPP2; concentration 0.75 (unit not given)): 94.1339% and 121.154% and 102.128% | 18F-NaF percentage binding to CPP2 (CPP2; concentration 2.5 (unit not given)): 93.0288% and 114.326% and 101.486% | 18F-NaF percentage binding to CPP2 (CPP2; concentration 7.5 (unit not given)): 92.4582% and 110.79% and 97.129% | 18F-NaF percentage binding to CPP2 (CPP2; concentration 25 (unit not given)): 95.6995% and 114.564% and 112.333% | 18F-NaF percentage binding to CPP2 (CPP2; concentration 75 (unit not given)): 85.0945% and 107.18% and 113.212% | 18F-NaF percentage binding to CPP2 (CPP2; concentration 250 (unit not given)): 87.0585% and 108.409% and 103.034% | 18F-NaF percentage binding to CPP2 (CPP2; concentration 750 (unit not given)): 87.2718% and 107.684% and 96.5293% | 18F-NaF percentage binding to CPP2 (CPP2; concentration 1750 (unit not given)): 100.593% and 62.29% and 66.5713% | 18F-NaF percentage binding to CPP2 (CPP2; concentration 2500 (unit not given)): 85.021% and 85.5383% and 72.51% | 18F-NaF percentage binding to CPP2 (CPP2; concentration 7500 (unit not given)): 76.4111% and 59.8209% and 66.7993% | 18F-NaF percentage binding to CPP2 (CPP2; concentration 25000 (unit not given)): 66.3738% and 68.2115% and 51.6692% | 18F-NaF percentage binding to CPP2 (CPP2; concentration 75000 (unit not given)): 48.1457% and 55.4993% and 51.2901% | 18F-NaF percentage binding to CPP2 (CPP2; concentration 250000 (unit not given)): 52.9543% and 43.7782% and 27.6001% | 18F-NaF percentage binding to CPP2 (CPP2; concentration 750000 (unit not given), replicates Fig. 2c): 50.6666% and 38.054% and 33.4917% | ΔT50 after 4.5 h vs 0 h incubation in enzymatically active human serum [1]: -69 min and -77 min and -76 min and -70 min | decrease of T50 from baseline after 4.5-h incubation in enzymatically active serum ([1]; mean): 73 min | viability at 48 h, 1 µM ([2]; primary human VSMCs, 1 µM with CPP2, replicates Fig. 3f): 100% | viability at 48 h, 3 µM ([2]; primary human VSMCs): 106% | viability at 48 h, 10 µM ([2]; primary human VSMCs): 109% | viability at 48 h, 30 µM ([2]; primary human VSMCs): 94.2%
